Assay [1] concerns the target T1, mutant MGL (mut-MGLL 11-313 L179S L186S) (Homo sapiens, UniProt Q99685, L169S/L176S).
T1 construct: purified mutant MGL (mut-MGLL 11-313 L179S L186S)
T1 sequence (Q99685 1-303 L169S/L176S): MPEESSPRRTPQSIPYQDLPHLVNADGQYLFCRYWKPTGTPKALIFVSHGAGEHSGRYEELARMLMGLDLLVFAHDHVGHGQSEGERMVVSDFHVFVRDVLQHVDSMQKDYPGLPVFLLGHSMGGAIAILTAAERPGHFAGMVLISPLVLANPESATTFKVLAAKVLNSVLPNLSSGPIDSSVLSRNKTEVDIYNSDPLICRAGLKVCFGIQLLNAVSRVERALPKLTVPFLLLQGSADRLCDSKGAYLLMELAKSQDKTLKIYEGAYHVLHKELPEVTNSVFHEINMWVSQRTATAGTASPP
Kind of assay: MGL Enzyme Activity Assay, purified mutant MGL, 4MU-B substrate. The conditions noted are these: mutant MGL 5 nM, 4MU-B 10 μM, 37° C.; read-out: MGL mutant inh IC50. Format: biochemical. An outline of the steps:
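Purified mutant MGL (5 nM final) with 10 μM 4MU-B in 20 mM PIPES pH 7.0, 150 mM NaCl, 0.001% Tween 20; compounds 17 to 0.0003 μM final. Fluorescence (ex 335/em 440 nm) followed 5 min at 37 °C; IC50 from fit of fractional activity versus inhibitor concentration.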

Assay [2] addresses T2, mutant MGL (Homo sapiens, UniProt Q99685, L169S/L176S).
T2 construct: purified mutant MGL (mut-MGLL 11-313 L179S L186S)
T2 sequence (Q99685 1-303 L169S/L176S): T1 sequence (Q99685 1-303 L169S/L176S)
Kind of assay: MGL ThermoFluor Assay - Mutant. Format: binding. The settings on record: 0.07 mg/ml mutant MGL, 100 μM ANS, pH 7.0. Put shortly: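 Thermal-shift binding with 0.07 mg/ml L169S/L176S mutant MGL, 100 μM 1,8-ANS, 200 mM NaCl, 0.001% Tween-20, 50 mM PIPES pH 7.0, heated 40–90 °C at 1 °C/min.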
Background: In DSF a fluorescence change marks the thermal transition of the protein.

Assay [3] relates to CFA-Induced Paw Radiant Heat Hypersensitivity. Description: CFA-Induced Paw Radiant Heat Hypersensitivity. It counts as in vivo. The conditions noted are these: rat, 30 mg/kg p.o., HPβCD, last time point 300 min (180 min for Cpd 17, 77); for inhibition in vivo at 30 mg/kg: po, 5 h, group mean values, read-out: Method 1: peak % reversal; for Method 2: peak % reversal: individual animal values. As to the method:
Each rat was placed in a test chamber on a warm glass surface and allowed to acclimate for approximately 10 min. A radiant thermal stimulus (beam of light) was focused through the glass onto the plantar surface of each hind paw in turn. The thermal stimulus was automatically shut off by a photoelectric relay when the paw was moved or when the cut-off time was reached (20 sec for radiant heat at ˜5 amps). An initial (baseline) response latency to the thermal stimulus was recorded for each animal prior to the injection of complete Freund's adjuvant (CFA). Twenty-four hours following intraplantar CFA injection, the response latency of the animal to the thermal stimulus was re-evaluated and compared to the animal's baseline response time. […] Immediately following the post-CFA latency assessment, the indicated test compound or vehicle was administered orally. Post-compound treatment withdrawal latencies were assessed at fixed time intervals, typically 30, 60, 120, 180, and 300 min.
The percent reversal (% R) of hypersensitivity was calculated in one of two different ways:
1) using group mean values or 2) using individual animal values. More specifically:
Method 1. For all compounds, the % R of hypersensitivity was calculated using the mean value for groups of animals at each time point according to the following formula: % reversal=[(group treatment response−group CFA response)/(group baseline response−group CFA response)]×100 Results were given for the maximum % reversal observed for each compound at any time point tested.
Method 2. For some compounds, the % R of hypersensitivity was calculated separately for each animal according to the following formula: % reversal=[(individual treatment response−individual CFA response)/(individual baseline response−individual CFA response)]×100.
Results are given as a mean of the maximum % reversal values calculated for each individual animal.

In assay [4] the target is T3, wild type MGL (wt-MGLL 6H-11-313) (Homo sapiens, UniProt Q99685).
T3 construct: purified wild type MGL (wt-MGLL 6H-11-313); 6H (hexahistidine) (N)
T3 sequence (Q99685 1-303): T1 sequence (Q99685 1-303 L169S/L176S) with S169L, S176L
Kind of assay: MGL Enzyme Activity Assay, purified wild type MGL, 4MU-B substrate. Format: biochemical. The settings on record: wild type MGL 5 nM, 4MU-B 10 μM, 37° C.; read-out: MGL wild type inh IC50. The procedure: All rate-based assays were performed in black 384-well polypropylene PCR microplates (Abgene) in a total volume of 30 μL. […] Final compound concentrations ranged from 17 to 0.0003 μM.
The IC50 values for the following compounds were determined using Microsoft Office Excel from a fit of the equation to the concentration-response plot of the fractional activity as a function of inhibitor concentration.

Assay [5] addresses T4, MGL (Rattus norvegicus, UniProt Q8R431).
T4 construct: one g rat brain was homogenized using a Polytron homogenizer; from tissue; host or cells: rat brain homogenate
T4 sequence (Q8R431 1-303): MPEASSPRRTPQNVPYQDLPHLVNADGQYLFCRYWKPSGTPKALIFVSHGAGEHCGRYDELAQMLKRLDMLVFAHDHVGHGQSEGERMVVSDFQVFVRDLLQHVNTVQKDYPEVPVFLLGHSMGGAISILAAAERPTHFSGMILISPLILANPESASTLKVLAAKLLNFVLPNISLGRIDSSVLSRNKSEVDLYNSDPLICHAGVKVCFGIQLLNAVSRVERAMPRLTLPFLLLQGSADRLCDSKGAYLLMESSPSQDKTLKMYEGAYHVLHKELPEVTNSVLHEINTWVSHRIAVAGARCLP
Kind of assay: 2-AG Accumulation Assay in rat brain homogenate. The conditions noted are these: percent of vehicle; for activity at 10 µM: compound @10 µM, read-out: Rat Brain 2AG % VehCntrl (%) @10 µM; for activity at 1 µM: compound @1 µM, read-out: Rat Brain 2AG % VehCntrl (%) @1 µM. Format: biochemical.

Each structure is given as a SMILES string. Changes are numbered by the printed parent chain. Some results are limits rather than exact numbers.

Take `O=C(c1ccc2oc(-c3ccccc3)nc2c1)N1CC(N2CC(N3Cc4ccccc4C3=O)C2)C1` [Cpd 77, 2-{1′-[(2-Phenyl-1,3-benzoxazol-5-yl)carbonyl]-1,3′-biazetidin-3-yl}-2,3-dihydro-1H-isoindol-1-one]: the half-inhibitory concentration (IC50) (as a rule, the concentration needed to halve the response being measured) in assay [1] was 16 nM. Further, binding in assay [2] was characterised by a dissociation constant (Kd) of 100 nM. Also, in assay [3], the inhibition in vivo at 30 mg/kg turned out to be 9.9% and the “Method 2: peak % reversal” value is listed as 6.9%. Besides, in assay [4], the IC50 came out at 31 nM. In addition, the activity at 10 µM in assay [5] came to 478%.
On to `O=C(NC1CN(C2CN(C(=O)c3ccc(-c4cccc(C(F)(F)F)c4)cc3)C2)C1)c1cscn1` [Cpd 2, N-(1′-{[3′-(Trifluoromethyl)biphenyl-4-yl]carbonyl}-1,3′-biazetidin-3-yl)-1,3-thiazole-4-carboxamide], for which the IC50 in assay [1] came to 6 nM; in assay [4], 8 nM. Besides, in assay [2], the dissociation constant (Kd) (as a rule, the constant that tells how readily two partners part at equilibrium) amounted to 22 nM. In addition, in assay [3], the inhibition in vivo at 30 mg/kg was 47.9%. For the same compound, the activity at 1 µM in assay [5] was found to be 620%.
`Cc1c(C(=O)N2CC(N3CC(NC(=O)c4nccs4)C3)C2)sc2cc(C(F)(F)F)ccc12` [Cpd 56, N-(1′-{[3-Methyl-6-(trifluoromethyl)-1-benzothiophen-2-yl]carbonyl}-1,3′-biazetidin-3-yl)-1,3-thiazole-2-carboxamide]: in assay [2], binding was characterised by a dissociation constant (Kd) of 2.15 nM. The inhibition in vivo at 30 mg/kg in assay [3] is -1.3%. In assay [4], the IC50 was 6 nM. In assay [5], the activity at 1 µM came out at 413%.
Take `O=C(c1cc2cc(-c3ccccc3)ccc2s1)N1CC(N2CC(N3Cc4ccccc4C3=O)C2)C1` [Cpd 79, 2-{1′-[(5-Phenyl-1-benzothiophen-2-yl)carbonyl]-1,3′-biazetidin-3-yl}-2,3-dihydro-1H-isoindol-1-one]: the IC50 in assay [1] turned out to be 18 nM; in assay [4], 10 nM. For the same compound, in assay [2], the Kd came out at 33.3 nM. Further, the inhibition in vivo at 30 mg/kg in assay [3] stood at 33.7%. In addition, the activity at 1 µM in assay [5] is 253%. In addition, in assay [5], the activity at 10 µM was 676%.
For the compound `O=C(NC1CN(C2CN(C(=O)c3ccc(-c4cccc(C(F)(F)F)c4)cc3)C2)C1)c1nccs1` [Cpd 5, N-(1′-{[3′-(Trifluoromethyl)biphenyl-4-yl]carbonyl}-1,3′-biazetidin-3-yl)-1,3-thiazole-2-carboxamide], the concentration for half-maximal inhibition (IC50) in assay [1] turned out to be 7 nM. This compound also yielded a Kd in assay [2] of 11.2 nM. Besides, in assay [3], the inhibition in vivo at 30 mg/kg is 57.4% and the “Method 2: peak % reversal” value amounted to 55.8%. The half-maximal inhibitory concentration (IC50) in assay [4] turned out to be 15 nM. In assay [5], the activity at 1 µM turned out to be 347% and the activity at 10 µM worked out at 921%.
For the compound `O=C(NC1CN(C2CN(C(=O)c3ccc4nc(-c5ccccc5)oc4c3)C2)C1)c1nccs1` [Cpd 17, N-{1′-[(2-Phenyl-1,3-benzoxazol-6-yl)carbonyl]-1,3′-biazetidin-3-yl}-1,3-thiazole-2-carboxamide], in assay [1], the IC50 turned out to be 48 nM. Besides, binding in assay [2] was put at a Kd of 333 nM. Further, in assay [3], the inhibition in vivo at 30 mg/kg was 27% and the “Method 2: peak % reversal” value is listed as 31.5%. Moreover, in assay [4], the concentration for half-maximal inhibition (IC50) came to 37 nM. Besides, in assay [5], the activity at 1 µM is 355% and the activity at 10 µM is 486%.
`O=C(c1sc2cc(C(F)(F)F)ccc2c1Cl)N1CC(N2CC(N3Cc4ccccc4C3=O)C2)C1` [Cpd 99, 2-(1′-{[3-Chloro-6-(trifluoromethyl)-1-benzothiophen-2-yl]carbonyl}-1,3′-biazetidin-3-yl)-2,3-dihydro-1H-isoindol-1-one]: the IC50 in assay [1] and in assay [4] was under 5 nM throughout. This compound showed a dissociation constant (Kd) in assay [2] of 2.7 nM. Besides, the inhibition in vivo at 30 mg/kg in assay [3] stood at 27.6%. Also, the activity at 1 µM in assay [5] was 449%.
In turn, `Cc1c(C(=O)N2CC(N3CC(NC(=O)c4cscn4)C3)C2)sc2cc(C(F)(F)F)ccc12` [Cpd 67, N-(1′-{[3-Methyl-6-(trifluoromethyl)-1-benzothiophen-2-yl]carbonyl}-1,3′-biazetidin-3-yl)-1,3-thiazole-4-carboxamide] came in with a dissociation constant Kd in assay [2] of 10.7 nM. Besides, the inhibition in vivo at 30 mg/kg in assay [3] turned out to be 35.7%. In assay [4], the IC50 was under 5 nM. Moreover, in assay [5], the activity at 1 µM turned out to be 434%.

The values are drawn from patent US8759333B2, “Di-azetidinyl diamide as monoacylglycerol lipase inhibitors” (Janssen Pharmaceutica, NV, priority 2010, dated 2014).
